Data on one sequence can be found in patent US20220310200A1, “METHODS FOR IDENTIFYING AND USING DISEASE-ASSOCIATED ANTIGENS” (KIROMIC BIOPHARMA, INC., priority 2019, published 2022).

This data set deals with Autologous DCs pulsed with the IsoMSLN peptide. As to the kind of experiment: DC-T-cell co-culture immunogenicity, 4-hour Calcein-AM-release cytotoxicity assay. Particulars: E/T ratio 10:1 and 5:1; peripheral blood mononuclear cells of a healthy individual; control unrelated HIV peptide; FIG. 5. The format is cell-based. As to the method:
The peptide unique to the isoform variant (i.e., PQAPRRPL (SEQ ID NO: 19)) was then tested for immunogenicity using a dendritic cell (DC)- T-cell co-culture system as previously described (Chiriva-Internati et al. Blood. 2002 Aug. 1;100(3):961-5). A standard 4-hour Calcein-AM-release assay was performed to determine the cytotoxic activity of the IsoMSLN peptide stimulated T cells. Autologous DCs pulsed with the IsoMSLN peptide or with an unrelated peptide (derived from HIV), were used as target cells (at an effector-target cell [E/T] ratio of 10:1 and 5:1).

No end group written: not given here.

On to PQAPRRPL [PQAPRRPL], for which the “immunogenicity (cytotoxic activity of peptide stimulated T cells, percent specific killing)” value is recorded as “immunogenic”.
